The term LC50 denotes the concentration that kills 50% of the test population. Lower therefore signals greater toxicity.

In brackets after ≈: the same amount, converted by molar mass.

What all share (assay type): in vivo
In experiment [1] the test system is Southern army worm (Prodenia eridania). Kind of experiment: Southern army worm spray test (AW). Conditions: 72 h; contact activity rating, 50% mortality, three days. On the procedure: (§1) The compounds are evaluated for biological activity against the following representative pests: Mexican bean beetle (Epilachna varivestis), Southern army worm (Prodenia eridania), housefly (Musca domestica), bean aphid (Aphis fabae), and red spider mite (Tetranychus sp.). The last two pests are treated both by contact and systemic application.
(§2) For purposes of comparison, results obtained with known Compound 7472, Compound 7577, and aldicarb are included in the test results. Each test compound is rated using the following scale:
Southern Army Worm Spray Test
Paired fully expanded primary leaves excised from Scarlet runner bean plants are maintained in plastic tubes containing water and sprayed with the test formulation prepared as described in Example 15. After the spray deposit on the leaves is dry, the paired leaves are separated. One leaf is placed onto 1.5 percent water agar and infested with 10 newly hatched Southern army worm larvae. The covered test receptacle is held at 72° F for three days and then the percent mortality is determined. Results of this test are shown in Table 7 as AW (Southern army worm spray test).

For experiment [2], the system named is housefly (Musca domestica). The experiment in a line: Housefly spray test (HF). Conditions: 72 h, contact activity rating, 50% mortality, three days. As to the method: as §1, §2
This test determines the insecticidal activity of the compound being tested against adult houseflies, Musca domestica. Stock formulations containing 500 ppm of each test chemical are prepared using the procedure described in Example 15 and are diluted to obtain the appropriate lower concentrations.
Ten adult flies are placed in a cylindrical screen cage 11/2 by 4 inches fabricated from 20-mesh stainless steel screening and are sprayed with 50 ml of the stock or diluted formulation. The flies are supplied food and drink from a dextrose solution by draping a paper wick over the outside of the screen cylinder and are able to feed and drink ad libitum. Percent mortality obtained is determined three days after treatment. Results of this test are shown in Table 7 as HF (housefly spray test).

In experiment [3] the test system is root-knot nematodes (Meloidogyne spp.). Kind of experiment: Root-knot nematocide test. As to the method:
Root-knot Nematocide Test
This test is an evaluation of the effectiveness of the compound being tested against infection by root-knot nematodes (Meloidogyne spp.).
Composted greenhouse soil, diluted by one-third with clean washed sand, is infected with about two grams of knotted or galled tomato roots per pot. Treatment is accomplished by applying 25 ml of the formulated compound onto the infested soil. The formulation contains 0.056 g of Compound 7960, 1.0 ml stock emulsifier solution (0.25% Triton X-155 in acetone by volume), and 24.0 ml deionized water, giving a concentration of 2240 ppm. Lower concentrations are achieved by dilution.
After treatment with the test formulation, the soil, inoculum, and formulation are thoroughly mixed, returned to the pot, and the mixture incubated for seven days at 20° C and constant moisture. After incubation, two seedlings of Rutgers tomato transplants and three garden nasturtium (Nasturtium spp.) seeds are set in each pot. Roots are removed from the soil after three weeks of growth and rated for gall (root-knot nematode infection) formation. Nasturtium roots are evaluated only when necrosis of the tomato host has occurred. […] Each of the root systems is rated separately and the average is multiplied by 10 and subtracted from 100 to give percent nematode control.

Turning to `CNC(=O)ON=C(C)C(C)(C)C` [Compound 7472, 2,2-dimethyl-3-methylcarbamyloximinobutane, reference compound], the LC50 in experiment [1] and in experiment [2] was over 500 µg/mL throughout.

For the molecule `CNC(=O)ON=C(CSCC(=O)OC)C(C)(C)C` [Compound 7503, 1-carbomethoxymethylthio-3,3-dimethyl-2-methylcarbamyloximinobutane], the LC50 in experiment [1] and in experiment [2] was over 500 µg/mL throughout.

As to `CNC(=O)ON=C(C)C(C)(C)SC` [Compound 7577, 3-methyl-2-methylcarbamyloximino-3-methylthiobutane, reference compound], the LC50 in experiment [1] and in experiment [2] was over 500 µg/mL throughout.

As for `CNC(=O)ON=C(C)CSC` [Compound 7603, 2-methylcarbamyloximino-1-methylthiopropane], the results for the LC50 in experiment [1] and in experiment [2] were over 500 µg/mL and 16 to 32 µg/mL (≈ 90.8 to 182 µM), respectively.

As for `CNC(=O)ON=C(CSc1ccccc1)C(C)(C)C` [Compound 7718, 3,3-dimethyl-2-methylcarbamyloximino-1-phenylthiobutane], the median lethal concentration (LC50) in experiment [1] is over 500 µg/mL; in experiment [2], 250 to 500 µg/mL (≈ 892 to 1780 µM).

As to `CCNC(=O)ON=C(CSC)C(C)(C)C` [Compound 7797, 2-ethylcarbamyloximino-3,3-dimethyl-1-methylthiobutane], the median lethal concentration (LC50) in experiment [1] is over 500 µg/mL; in experiment [2] it was 64 to 128 µg/mL (≈ 275 to 551 µM).

Consider `C=CCNC(=O)ON=C(CSC)C(C)(C)C` [Compound 7799, 2-allylcarbamyloximino-3,3-dimethyl-1-methylthiobutane], for which the LC50 in experiment [1] was over 500 µg/mL; in experiment [2] it was 128 to 250 µg/mL (≈ 524 to 1020 µM).

As for `CNC(=O)ON=C(C[S+](C)[O-])C(C)(C)C` (centres unmarked) [Compound 7804, 3,3-dimethyl-2-methylcarbamyloximino-1-methylsulfinylbutane], the median lethal concentration (LC50) in experiment [1] and in experiment [2] was 128 to 250 µg/mL (≈ 546 to 1070 µM) throughout.

In the case of `CSCC(=NOC(N)=O)C(C)(C)C` [Compound 7859, 2-carbamyloximino-3,3-dimethyl-1-methylthiobutane], the LC50 in experiment [1] and in experiment [2] was over 500 µg/mL each time.

Consider `CCSCC(=NOC(=O)NC)C(C)(C)C` [Compound 7862, 1-ethylthio-3,3-dimethyl-2-methylcarbamyloximinobutane], for which the median lethal concentration (LC50) in experiment [1] is over 500 µg/mL; in experiment [2], 64 to 128 µg/mL (≈ 275 to 551 µM).

`CNC(=O)ON=C(CSC)C(C)C` [Compound 7867, 3-methyl-2-methylcarbamyloximino-1-methylthiobutane]: the median lethal concentration (LC50) was over 500 µg/mL in experiment [1] and 64 to 128 µg/mL (≈ 313 to 627 µM) in experiment [2].

In the case of `CSCC(=NOC(=O)N(C)C)C(C)(C)C` [Compound 7871, 3,3-dimethyl-2-dimethylcarbamyloximino-1-methylthiobutane], the median lethal concentration (LC50) in experiment [1] and in experiment [2] was over 500 µg/mL in each case.

Consider `C=CCSCC(=NOC(=O)NC)C(C)(C)C` [Compound 7897, 1-allylthio-3,3-dimethyl-2-methylcarbamyloximinobutane], for which the LC50 is over 500 µg/mL in experiment [1] and 64 to 128 µg/mL (≈ 262 to 524 µM) in experiment [2].

On to `CCC(CSC)=NOC(=O)NC` [Compound 7916, 2-methylcarbamyloximino-1-methylthiobutane], for which the LC50 is over 500 µg/mL in experiment [1] and 64 to 128 µg/mL (≈ 336 to 673 µM) in experiment [2].

For the molecule `CCCC(C)(C)C(CSC)=NOC(=O)NC` [Compound 7934, 3,3-dimethyl-2-methylcarbamyloximino-1-methylthiohexane], the LC50 in experiment [1] and in experiment [2] was over 500 µg/mL each time.

For `CNC(=O)ON=C(CSC)C(C)(C)SC` [Compound 7960, 1,3-bis(methylthio)-3-methyl-2-methylcarbamyloximinobutane], the median lethal concentration (LC50) in experiment [1] and in experiment [2] was over 500 µg/mL throughout. Further, the “Percent Control (nematode)” value in experiment [3] (0.5 lb/A) was 97%; in experiment [3] (1 lb/A) it was 100%; in experiment [3] (2 lb/A), 100%; in experiment [3] (4 lb/A), 100%; in experiment [3] (8 lb/A), 100%.

In the case of `CNC(=O)ON=C(CSC#N)C(C)(C)C` [Compound 7991, 3,3-dimethyl-2-methylcarbamyloximino-1-thiocyanatobutane], the 50% lethal concentration (LC50) in experiment [1] and in experiment [2] was over 500 µg/mL each time.

Regarding `CNC(=O)ON=C(C(C)SC)C(C)(C)C` (centres unmarked) [Compound 8071, 2,2-dimethyl-3-methylcarbamyloximino-4-methylthiopentane], the median lethal concentration (LC50) in experiment [1] and in experiment [2] was over 500 µg/mL in each case.

As for `CNC(=O)ON=C(CCSC)C(C)(C)C` [Compound 8111, 4,4-dimethyl-3-methylcarbamyloximino-1-methylthiopentane], the median lethal concentration (LC50) was over 500 µg/mL in experiment [1] and 250 to 500 µg/mL (≈ 1080 to 2150 µM) in experiment [2].

Turning to `CNC(=O)ON=C(C1SCCS1)C(C)(C)C` [Compound 8423, 1,1-ethylenedithio-3,3-dimethyl-2-methylcarbamyloximinobutane], the entries for the “Percent Control (nematode)” value in experiment [3] (2 lb/A), in experiment [3] (4 lb/A) and in experiment [3] (8 lb/A) were 60%, 90% and 100%, respectively.

Take `CNC(=O)ON=C(CSC)C1CC1` [Compound 8465, 1-cyclopropyl-1-methylcarbamyloximino-2-methylthioethane]: the LC50 lay within 250 to 500 µg/mL (≈ 1240 to 2470 µM) in experiment [1] and 128 to 250 µg/mL (≈ 633 to 1240 µM) in experiment [2].

Regarding `CNC(=O)ON=C(CSC)CC(C)(C)C` [Compound 8519, 4,4-dimethyl-2-methylcarbamyloximino-1-methylthiopentane], the LC50 in experiment [1] and in experiment [2] was over 500 µg/mL throughout.

Take `CCC(C)(C)C(CSC)=NOC(=O)NC` [Compound 8520, 3,3-dimethyl-2-methylcarbamyloximino-1-methylthiopentane]: the LC50 in experiment [1] and in experiment [2] was over 500 µg/mL throughout.

With `CNC(=O)ON=C(CS(C)(=O)=O)C(C)(C)C` [Compound 8868, 3,3-dimethyl-2-methylcarbamyloximino-1-methylsulfonylbutane], the figures for the 50% lethal concentration (LC50) in experiment [1] and in experiment [2] were over 500 µg/mL and 128 to 250 µg/mL (≈ 511 to 999 µM), respectively.

For `CNC(=O)ON=C(CN=[N+]=[N-])C(C)(C)C` [Compound 8997, 1-azido-3,3-dimethyl-2-methylcarbamyloximinobutane], the 50% lethal concentration (LC50) in experiment [1] and in experiment [2] was 128 to 250 µg/mL (≈ 600 to 1170 µM) in each case. The entries for the “Percent Control (nematode)” value in experiment [3] (2 lb/A), in experiment [3] (4 lb/A) and in experiment [3] (8 lb/A) were 0%, 100% and 100%, respectively.

Consider `CNC(=O)ON=C(CSCCSC)C(C)(C)C` [Compound 9026, 3,3-dimethyl-2-methylcarbamyloximino-1-(2-methylthioethylthio)-butane], for which the LC50 in experiment [1] and in experiment [2] was over 500 µg/mL throughout. The “Percent Control (nematode)” value in experiment [3] (1 lb/A) amounted to 30%; in experiment [3] (2 lb/A), 60%; in experiment [3] (4 lb/A), 70%; in experiment [3] (8 lb/A), 90%.

For the molecule `CCCC(CSC)=NOC(=O)NC` [Compound 9057, 2-methylcarbamyloximino-1-methylthiopentane], the LC50 in experiment [1] is over 500 µg/mL; in experiment [2], 250 to 500 µg/mL (≈ 1220 to 2450 µM).

As to `CNC(=O)ON=C(CSC)CC(C)C` [Compound 9058, 4-methyl-2-methylcarbamyloximino-1-methylthiopentane], the median lethal concentration (LC50) is over 500 µg/mL in experiment [1] and 250 to 500 µg/mL (≈ 1150 to 2290 µM) in experiment [2].

`CNC(=O)O/N=C/C(C)(C)SC` [aldicarb, reference compound]: the LC50 in experiment [1] is over 500 µg/mL; in experiment [2], 4 to 8 µg/mL (≈ 21 to 42 µM).

The record behind these values is patent US3932471A, “Azide” (priority 1973, dated 1976).
